Results taken from PubChem BioAssay AID256 (DTP/NCI, 2004).
Inconclusive results and toxic doses are left out. The calls were made as follows: active = survival T/C of 150% or more; inactive = T/C below 125% in these data.

Tested on: CD2F1 mice, L1210 leukemia ip, survival T/C
Assay: NCI In Vivo Anticancer Drug Screen. Data for tumor model L1210 Leukemia (intraperitoneal) in CD2F1 (CDF1) mice
Conditions: higher = longer survival
How it was run: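 Read-out first: treated-group measurement over vehicle-control measurement, expressed as a ratio. Animals bore a transplanted tumor line and were dosed with compound or vehicle.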

[1] = endpoint: mean survival time, dose: 50.0 mg/kg/injection, schedule: Q01DX009 (ip), vehicle: saline with Tween-80
[2] = endpoint: mean survival time, dose: 100.0 mg/kg/injection, schedule: Q01DX009 (ip), vehicle: saline with Tween-80
[3] = endpoint: mean survival time, dose: 100.0 mg/kg/injection, schedule: Q04DX003 (ip), vehicle: saline with Tween-80
[4] = endpoint: mean survival time, dose: 200.0 mg/kg/injection, schedule: Q04DX003 (ip), vehicle: saline with Tween-80
[5] = endpoint: mean survival time, dose: 200.0 mg/kg/injection, schedule: Q01DX009 (ip), vehicle: saline with Tween-80
[6] = endpoint: mean survival time, dose: 400.0 mg/kg/injection, schedule: Q01DX009 (ip), vehicle: saline with Tween-80
[7] = endpoint: mean survival time, dose: 400.0 mg/kg/injection, schedule: Q04DX003 (ip), vehicle: saline with Tween-80

Measured: T/C

O=C(Nc1ccc(Cl)c(Cl)c1)Nc1c(Oc2ccc(Cl)c(Cl)c2)ccc(Cl)c1S(=O)(=O)O
inactive: endpoint: mean survival time, dose: 3.12 mg/kg/injection, schedule: Q01DX009 (ip), vehicle: saline with Tween-80 109 % of control | endpoint: mean survival time, dose: 6.25 mg/kg/injection, schedule: Q01DX009 (ip), vehicle: saline with Tween-80 109 % of control | endpoint: mean survival time, dose: 12.5 mg/kg/injection, schedule: Q01DX009 (ip), vehicle: saline with Tween-80 110 % of control | endpoint: mean survival time, dose: 25.0 mg/kg/injection, schedule: Q01DX009 (ip), vehicle: saline with Tween-80 113 % of control | [1] 104 % of control | [2] 113 % of control | [3] 108 % of control | [4] 101 % of control

CS(C)=O.[Cl-].[Cl-].[NH-]CC(O)C[N-]CC(O)CN.[Pt+4] (configuration not stated)
inactive: endpoint: median survival time, dose: 10.0 mg/kg/injection, schedule: Q04DX003 (ip), vehicle: saline 97 % of control | endpoint: median survival time, dose: 20.0 mg/kg/injection, schedule: Q04DX003 (ip), vehicle: saline 111 % of control | endpoint: median survival time, dose: 40.0 mg/kg/injection, schedule: Q04DX003 (ip), vehicle: saline 108 % of control | endpoint: median survival time, dose: 50.0 mg/kg/injection, schedule: Q04DX003 (ip), vehicle: saline 94 % of control | endpoint: median survival time, dose: 80.0 mg/kg/injection, schedule: Q04DX003 (ip), vehicle: saline 98 % of control

CC1(C)CCC(C#N)=C1N
inactive: endpoint: mean survival time, dose: 12.5 mg/kg/injection, schedule: Q04DX003 (ip), vehicle: saline with Tween-80 97 % of control | endpoint: mean survival time, dose: 25.0 mg/kg/injection, schedule: Q04DX003 (ip), vehicle: saline with Tween-80 97 % of control | endpoint: mean survival time, dose: 50.0 mg/kg/injection, schedule: Q04DX003 (ip), vehicle: saline with Tween-80 91 % of control

CCCCCCCCCCCCCCCCOc1ccc(C(=O)OC)cc1NS(=O)(=O)c1ccc(C(=O)O)cc1
inactive: endpoint: mean survival time, dose: 100.0 mg/kg/injection, schedule: Q01DX001 (ip), vehicle: saline with Tween-80 96 % of control | endpoint: mean survival time, dose: 100.0 mg/kg/injection, schedule: Q01DX009 (ip), vehicle: Klucel (hydroxypropylcellulose) (HPC) 98 % of control | endpoint: mean survival time, dose: 200.0 mg/kg/injection, schedule: Q01DX001 (ip), vehicle: saline with Tween-80 98 % of control | endpoint: mean survival time, dose: 200.0 mg/kg/injection, schedule: Q01DX009 (ip), vehicle: Klucel (hydroxypropylcellulose) (HPC) 95 % of control | endpoint: mean survival time, dose: 400.0 mg/kg/injection, schedule: Q01DX001 (ip), vehicle: saline with Tween-80 91 % of control | endpoint: mean survival time, dose: 400.0 mg/kg/injection, schedule: Q01DX009 (ip), vehicle: Klucel (hydroxypropylcellulose) (HPC) 98 % of control

CC(=O)SCCCCl
inactive: endpoint: mean survival time, dose: 100.0 mg/kg/injection, schedule: Q01DX009 (ip), vehicle: saline 97 % of control | endpoint: mean survival time, dose: 200.0 mg/kg/injection, schedule: Q01DX009 (ip), vehicle: saline 101 % of control

CC(C)c1ccc2c(c1)CC[C@H]1[C@](C)(C#N)CCC[C@]21C
inactive: [2] 95 % of control | [5] 94 % of control

Cc1nc2ccc(CCN3CCN(c4ccccc4Cl)CC3)cc2[nH]1
inactive: endpoint: mean survival time, dose: 50.0 mg/kg/injection, schedule: Q04DX003 (ip), vehicle: Klucel (hydroxypropylcellulose) (HPC) 112 % of control

O=C1C(Br)=C(Br)C(=O)C(Br)=C1Br
inactive: [1] 91 % of control | [2] 94 % of control | [5] 86 % of control

OC12CC(C(F)(F)F)(C(F)(F)F)OC1(O)CC(C(F)(F)F)(C(F)(F)F)O2 (configuration not stated)
inactive: [1] 95 % of control | [2] 95 % of control | [5] 95 % of control

O=CNc1ccccc1Cl
inactive: [2] 101 % of control | [3] 94 % of control | [5] 98 % of control | [4] 95 % of control | [6] 91 % of control | [7] 91 % of control

N#C[Se]C[Se]C#N
inactive: endpoint: mean survival time, dose: 6.25 mg/kg/injection, schedule: Q01DX001 (ip), vehicle: saline with Tween-80 104 % of control

CC(CC=O)P(=O)(c1ccccc1)c1ccccc1 (configuration not stated)
inactive: [2] 94 % of control | [3] 94 % of control | [5] 92 % of control | [4] 91 % of control | [6] 95 % of control | [7] 91 % of control

COC(CN(CC(OC)OC)c1ncnc2nc[nH]c12)OC
inactive: endpoint: mean survival time, dose: 25.0 mg/kg/injection, schedule: Q01DX005 (ip), vehicle: other 93 % of control | endpoint: mean survival time, dose: 50.0 mg/kg/injection, schedule: Q01DX005 (ip), vehicle: other 91 % of control | endpoint: mean survival time, dose: 100.0 mg/kg/injection, schedule: Q01DX005 (ip), vehicle: other 98 % of control | endpoint: mean survival time, dose: 200.0 mg/kg/injection, schedule: Q01DX005 (ip), vehicle: other 98 % of control | endpoint: mean survival time, dose: 400.0 mg/kg/injection, schedule: Q01DX005 (ip), vehicle: other 96 % of control

CCC1(C(=O)OC)CCC2C3CCC4CCCCC4(C)C3CCC21C (configuration not stated)
inactive: endpoint: mean survival time, dose: 75.0 mg/kg/injection, schedule: Q04DX003 (sc), vehicle: steriod suspending solution 103 % of control | endpoint: mean survival time, dose: 150.0 mg/kg/injection, schedule: Q04DX003 (sc), vehicle: steriod suspending solution 101 % of control | endpoint: mean survival time, dose: 300.0 mg/kg/injection, schedule: Q04DX003 (sc), vehicle: steriod suspending solution 101 % of control

CCOC/C=C/C1CCCCC1
inactive: [1] 117 % of control | [2] 97 % of control | [5] 97 % of control
